The subject of assay [1] is vancomycin-resistant enterococci (VRE) cells, VRE 1. Put plainly: MIC in vitro broth micro-dilution assay, VRE 1. The format is cell-based. The following applies: lowest concentration to fully inhibit visible growth (OD600), clinical isolate, ampicillin, ciprofloxacin and vancomycin resistant. The method, then:
(§1) Bacterial susceptibility was established through an in vitro cell-based broth micro-dilution assay. To produce accurate and reproducible MIC-values, a procedure was used which follows the guidelines set by the Clinical and Laboratory Standards Institute (CLSI, USA) and the European Committee on Antimicrobial Susceptibility Testing (EUCAST). The micro-dilutions were carried out in 96-well plates, according to FIG. 3, wherein column 1 is a growth control, Columns 2 to 11 are dilutions of 1×, 2×, 4×, 8×, 16×, 32×, 64×, 128×, 256×, 512× respectively, and column 12 is a sterile control. To further increase the reliability of each susceptibility test, inoculation involved the use of three independent overnight cultures (ON1-ON3) thus giving rise to […]. Furthermore, each ON was added to two individual dilution rows, giving rise to […]. The standard inoculum was set to ˜5-10^5 colony-forming units (CFU) mL^−1. This was verified by dilution onto agar plates after each overall run.
(§2) The applied procedure was:
(§3) 1.1 MH or BHI agar plates for dilutions were created, 1 plate per overnight (ON) culture and MH or BHI media. 1.2 Day 1: Preparation of ON cultures of the bacterial strain in question, by inoculation of a single colony in 5 mL of MH or BHI media. Then incubation at 37° C. with aeration for approximately 16-20 hours. Biological triplicates were created by inoculation from 3 different colonies per strain.
(§4) 1.3 Day 2: A 96-well plate with the antibiotic/compound in question was prepared as according to FIG. 3: 1.4 In a 15 mL falcon tube, an appropriate volume of a 1000 μg/mL antibiotic/compound DMSO stock was diluted with MH or BHI media such that a 2× concentration and total volume of 10 mL was achieved. 1.5 A multi-channel pipette was used in the following. 1.6 Column 1 was used for growth control, so no antibiotic/compound was added to that column. 1.7 200 μl of 2× concentration of the antibiotic/compound was added to column 2. Technical duplicates were always created, thus 2 columns per ON culture. 1.8 100 μl of MH or BHI media was added to columns 1, 3-11 and 200 μl of MH or BHI media to column 12. 1.9 100 μl was transferred from column 2 to column 3. The same pipetting tips were used to transfer 100 μL from column 3 to 4. This scheme was repeated until column 11 where 100 μl was discarded after re-suspending. Column 12 was used as a sterile control, so no antibiotic/compound was added to that column. Each transferring involved pipetting up and down 5 to 7 times. 1.10 The plates were fully dried for CFU in the 42° C. incubator, 4× dilutions in triplicates per one plate.
(§5) 1.11 The optical density of bacterial cells in the ON culture was measured at wavelength 600 nm (OD600). Then the ON culture was diluted to an OD600=0.1. 1.12 Then the OD600 was re-measured to make certain that it was between 0.08 and 0.13. 1.13 The prepared 0.1 culture of 1.12 was diluted 100× more by transferring of 100 μl thereof, to 10 ml of MH or BHI media (enough for a 96-well plate). 1.14 Then 200 μl of the 100× dilution in 1.13 was transferred to Eppendorf tubes and kept cold until use. 1.15 100 μl of culture with an OD600 on approximately 0.001 was dispensed to each well of columns 1 to 11. 1.16 The plate was closed. Covered with aluminium foil and small holes were created with a 100-200 μL tip.
(§6) 1.17 The 96-well plate was then incubated at 37° C. with agitation and left for 16-hours.
(§7) 1.18 Verification of standard inoculum: The 100× diluted culture of 1.13 was used to create 10^−1 to 10^−4 dilutions in PBS/0.9% saline (100 μl sample to 900 μl PBS, mix well and continue until 10^−4). 1.19 10 μl of the 10^−2, 10^−3 and 10^−4 dilutions in 1.18 were spotted onto very dry MH or BHI plates in triplicates. 1.20 Then incubated overnight at 37° C. 1.21 The plates were examined manually or by using the plate reader.
On the technique in general: Dilution methods test growth across graded concentrations, often in twofold steps.

Assay [2] has as its system S. pneumonia cells. Put plainly: MIC in vitro broth micro-dilution assay, S. pneumonia. The format is cell-based, Streptococcus pneumonia. As to conditions: lowest concentration to fully inhibit visible growth (OD600), clinical isolate. The method, then:
as §1, §2, §3, §4, §5, §6, §7

Assay [3] has as its system vancomycin-resistant enterococci (VRE) cells, VRE 5. Put plainly: MIC in vitro broth micro-dilution assay, VRE 5. It counts as cell-based. The following applies: lowest concentration to fully inhibit visible growth (OD600), clinical isolate, ampicillin, ciprofloxacin, vancomycin and linezolid resistant. The method, then: as §1, §2, §3, §4, §5, §6, §7
The subject of assay [4] is E. faecalis cells. Put plainly: MIC in vitro broth micro-dilution assay, E. faecalis. It counts as cell-based, Enterococcus faecalis. As to conditions: lowest concentration to fully inhibit visible growth (OD600), clinical isolate. The method, then:
as §1, §2, §3, §4, §5, §6, §7

Assay [5] has as its system Multi-resistant Staphylococcus aureus (MRSA) USA300 cells. Put plainly: MIC in vitro broth micro-dilution assay, MRSA USA300. The format is cell-based. The following applies: lowest concentration to fully inhibit visible growth (OD600), ATCC strain. The method, then:
as §1, §2, §3, §4, §5, §6, §7

Consider 3 molecules from patent US20230219964A1, “ANTIBACTERIAL AND ANTIFUNGAL PLEUROMUTILIN CONJUGATES” (SYDDANSK UNIVERSITET, priority 2020, published 2023).

Converted amounts (≈) assume the structure as drawn.

Usually MIC stands for the lowest concentration that inhibits growth of the organism.

In the case of `C=C[C@]1(C)C[C@@H](OC(=O)Cn2cc(-c3ccc(Cn4cc(C)c(=O)[nH]c4=O)cc3)nn2)[C@]2(C)[C@H](C)CC[C@]3(CCC(=O)[C@H]32)[C@@H](C)[C@@H]1O` [C20, 22-[4-(4-((Thymine-1-yl)methyl)phenyl)-1,2,3-triazol-1-yl]-22-deoxypleuromutilin], the MIC in assay [1] (Enterococcus, VRE, read-out: in vitro susceptibility (MIC) VRE 1) was determined as 0.5 µg/mL (≈ 0.777 µM); in assay [2] (Streptococcus pneumoniae, read-out: in vitro susceptibility (MIC) S. Pneumonia), 1 µg/mL (≈ 1.55 µM); in assay [3] (Enterococcus, VRE, read-out: in vitro susceptibility (MIC) VRE 5), 0.5 µg/mL (≈ 0.777 µM); in assay [4] (Enterococcus faecalis, read-out: in vitro susceptibility (MIC) E. Faecalis) it was 1 µg/mL (≈ 1.55 µM); in assay [5] (Staphylococcus aureus, read-out: in vitro susceptibility (MIC) MRSA USA3000) it was 0.12 µg/mL (≈ 0.186 µM).

With Retapamulin [reference compound], the “in vitro susceptibility (MIC) VRE 1” value in assay [1] is 0.03 µg/mL. In assay [2], the “in vitro susceptibility (MIC) S. Pneumonia” value turned out to be 0.12 µg/mL. Further, in assay [3], the “in vitro susceptibility (MIC) VRE 5” value was determined as 0.03 µg/mL. Besides, the “in vitro susceptibility (MIC) E. Faecalis” value in assay [4] was determined as 0.12 µg/mL. Further, the “in vitro susceptibility (MIC) MRSA USA3000” value in assay [5] came out at 0.25 µg/mL.

Valnemulin [reference compound]: the “in vitro susceptibility (MIC) VRE 1” value in assay [1] is 0.03 µg/mL. In assay [2], the “in vitro susceptibility (MIC) S. Pneumonia” value fell in the range of 0.06 to 0.12 µg/mL. For the same molecule, the “in vitro susceptibility (MIC) VRE 5” value in assay [3] is 0.015 µg/mL. In assay [4], the “in vitro susceptibility (MIC) E. Faecalis” value stood at 0.03 µg/mL. For the same molecule, the “in vitro susceptibility (MIC) MRSA USA3000” value in assay [5] came to 0.06 µg/mL.
